The text below walks through data of patent publication US8361929B2, “Method of restoring male sterility in gramineous plants and male sterility restorative agent” (Tohoku University, priority 2009, dated 2013).

Assay type in all cases: in vivo
The subject of series [1] is barley (Hordeum vulagare L. cv Haruna-nijo). Briefly: Side effects of spread auxin on the plants (leaf withering). From the text:
(§1) In an experiment to verify the effect of an auxin, the above-described nursery soil for horticultural was used. In addition, to facilitate the control of an auxin aqueous solution treatment, each pair of two rectangular planter boxes (60 mm×60 mm×100 mm (length×width×height), AGC TECHNO GLASS CO., LTD., Plant Box (Model No. CUL-JAR300)) were vertically stacked on each other. A hole having a diameter of about 1 cm was formed at the bottom center of the upper box. A 6-cm wick for an alcohol lamp with a knot was passed through the hole. Then, 300 ml of vermiculite (NITTAI Co., Ltd., vermiculite for agricultural and horticultural use) was packed thereabove. In the lower box, 0.2% (v/v) of HYPONEX (HYPONeX JAPAN CORP., LTD.) was placed as a nutrient water source for plants. Seeds of Hordeum vulagare L. cv Haruna-nijo having been stored in the dark at 4° C. were stimulated to germinate in the dark at 25° C. for 48 hours. The germinated seeds were sown at four seeds per pot at the four corners of the upper container. These sown seeds were grown in an artificial climate chamber (Nippon Medical & Chemical Instruments Co., Ltd., BIOTRON LH300RDS) under conditions of 20° C. during the day, 15° C. at night, and a 16-hour photoperiod. As the light source, 20 plant growing fluorescent tubes were used (16 tubes; National FL40S FR-P, and 4 tubes; National, FL20S FR-P).
(§2) Also in this cultivation method, the fifth leaves emerge and start to develop on Day 18 or 19 after the sowing as in the case where the culture soil was used, where the day of the sowing is regarded as Day 0. The plants were cultivated under high-temperature conditions of 30° C. during the day, 25° C. at night, and a 16-hour photoperiod from Day 19 after the sowing. Thus, a high-temperature treatment was conducted for five days (120 hours). Thereafter (on Day 24 after the sowing), the conditions were changed back to the normal conditions of 20° C. during the day, 15° C. at night, and a 16-hour photoperiod.
First, 10^−3 M, 10^−2 M, and 10^−1 M stock solutions in dimethyl sulfoxide (DMSO: Wako Pure Chemical Industries, Ltd., Production Code: 043-07216) were prepared by using each of indole-3-acetic acid (IAA: Wako Pure Chemical Industries, Ltd., Production Code: 94-00183), 1-naphthyl acetic acid (NAA: Wako Pure Chemical Industries, Ltd., Production Code: 148-00092), and 2,4-dichlorophenoxyacetic acid (2,4-D: Wako Pure Chemical Industries, Ltd., Production Code: 040-18532). The stock solutions were stored in the dark at −20° C. until used. These stock solutions were thawed immediately before spread, and each were diluted 1000-fold with distilled water. Thus, solutions were prepared at three levels of 10^−6 M, 10^−5 M, and 10^−4 M, and used as auxin aqueous solutions. […]

Series [2] has the same test system. Briefly: Anther length at heading stage after spreading auxin aqueous solutions. To be noted: control groups (suitable temperature cultivation); 10^−6 M, 10^−5 M or 10^−4 M.
Source text: as §1
as §2, with “photoperiod. […]” for “photoperiod.”

Series [3] has the same test system. Briefly: Pollen maturity, potassium iodide staining of anthers. To be noted: control groups (suitable temperature cultivation); 10^−6 M, 10^−5 M or 10^−4 M.
Source text: as §1
as §2, with “photoperiod. […]” for “photoperiod.”

Series [4] shares this test system. Kind of series: Seed fertility (seeds produced in panicles) after auxin spreading. The following applies: for seeds produced in panicles: high-temperature treated groups, 10^−4 M.
Source text: as §1
as §2, with “photoperiod. […]” for “photoperiod.”

Setting [5] is: high-temperature treated samples, 10^−4 M.

Structures are written as SMILES. “Also recorded” adds a separate entry of the source.

For the compound `O=C(O)COc1ccc(Cl)cc1Cl` [2,4-D, 2,4-dichlorophenoxyacetic acid], the “negative effect on the plants (leaves)” value in series [1] (control groups (suitable temperature cultivation), 10^−4 M) is listed as “leaves stared to wither at an early stage”. Also, the “negative effect / side effects on the plants” value (shortened to “negative effect / side effects”) in series [1] (setting [5]) is given as “leaves started to wither at an early stage; also recorded: withering up at the early stage”. For the same compound, the “change of anther length at heading stage” value in series [2] is “change was hardly observed”. The pollen formation entry in series [3] is given as “formed normally”.

`O=C(O)Cc1c[nH]c2ccccc12` [IAA, indole-3-acetic acid]: the “negative effect / side effects” value in series [1] (in vivo) is listed as “side effects were hardly observed”. Also, the “seeds produced in panicles” value in series [4] is recorded as around 90%. Also, the “change of anther length at heading stage” value in series [2] is listed as “change was hardly observed”. For the same compound, the pollen formation entry in series [3] is given as “formed normally”.

Consider `O=C(O)Cc1cccc2ccccc12` [NAA, 1-naphthyl acetic acid], for which the “negative effect / side effects” value in series [1] (setting [5]) was “side effects were hardly observed”. Further, in series [4], the “seeds produced in panicles” value is around 90%. Moreover, in series [4] (individual of high-temperature treated group, spread at 10^−4 M), the “seed fertility restoration (FIG. 10)” value is reported as “seed fertility restoration”. Further, the “change of anther length at heading stage” value in series [2] is “change was hardly observed”. Further, in series [3], the pollen formation entry is reported as “formed normally”.
